From PMC6156230, “Caspase-1 inhibition alleviates cognitive impairment and neuropathology in an Alzheimer’s disease mouse model” (Nature Communications, 2018)

How the values were obtained:
Assay in all cases: fluorogenic AFC peptide substrate assay
Assay type in all cases: biochemical
[1] = biological target: T1, human Casp9 (Homo sapiens, UniProt P55211); conditions: 10 µM Ac-LEHD-AFC, pH 7.2, 37 °C, 10 mM DTT
T1 construct: recombinant caspase, commercial (BioVision)
T1 sequence (P55211 1-315): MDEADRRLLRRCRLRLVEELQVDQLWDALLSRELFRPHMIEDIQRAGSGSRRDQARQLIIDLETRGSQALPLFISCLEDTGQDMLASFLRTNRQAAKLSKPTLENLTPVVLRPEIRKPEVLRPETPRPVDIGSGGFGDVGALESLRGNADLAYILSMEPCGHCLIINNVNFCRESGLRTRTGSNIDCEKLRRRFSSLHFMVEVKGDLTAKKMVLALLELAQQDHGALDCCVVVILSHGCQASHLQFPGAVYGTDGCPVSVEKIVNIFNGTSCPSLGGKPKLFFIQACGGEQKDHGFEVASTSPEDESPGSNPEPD
T1 sequence (P55211 331-416): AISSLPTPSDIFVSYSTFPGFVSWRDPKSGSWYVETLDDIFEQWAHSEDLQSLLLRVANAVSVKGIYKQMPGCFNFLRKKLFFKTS

[2] = biological target: T2, human Casp1 (Homo sapiens, UniProt P29466)
T2 construct: recombinant caspase, commercial (BioVision)
T2 sequence (P29466 120-297): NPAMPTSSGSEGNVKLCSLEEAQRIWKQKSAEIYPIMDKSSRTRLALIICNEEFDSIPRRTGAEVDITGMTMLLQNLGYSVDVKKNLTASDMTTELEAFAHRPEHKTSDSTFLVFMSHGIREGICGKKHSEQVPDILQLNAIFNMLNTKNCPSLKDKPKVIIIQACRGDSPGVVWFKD
T2 sequence (P29466 317-404): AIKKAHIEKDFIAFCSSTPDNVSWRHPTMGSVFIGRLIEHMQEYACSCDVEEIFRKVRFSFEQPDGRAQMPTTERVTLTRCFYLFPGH

[3] = biological target: T3, human Casp8 (Homo sapiens, UniProt Q14790); conditions: 10 µM Ac-IETD-AFC, pH 7.2, 37 °C, 10 mM DTT
T3 construct: recombinant caspase, commercial (BioVision)

[4] = biological target: T4, human Casp5 (Homo sapiens, UniProt P51878); conditions: 10 µM Ac-WEHD-AFC, pH 7.2, 37 °C, 10 mM DTT
T4 construct: recombinant caspase, commercial (BioVision)
T4 sequence (P51878 137-327): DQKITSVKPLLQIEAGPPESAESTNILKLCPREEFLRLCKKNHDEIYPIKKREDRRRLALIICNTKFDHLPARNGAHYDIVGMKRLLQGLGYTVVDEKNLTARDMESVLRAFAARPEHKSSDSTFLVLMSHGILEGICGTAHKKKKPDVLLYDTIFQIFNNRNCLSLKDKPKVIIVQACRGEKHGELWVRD
T4 sequence (P51878 347-434): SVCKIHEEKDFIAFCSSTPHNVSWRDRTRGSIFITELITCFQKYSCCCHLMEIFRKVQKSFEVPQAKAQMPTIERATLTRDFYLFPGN

[5] = biological target: T5, mouse recombinant Casp1 (Mus musculus, UniProt P29452)
T5 construct: recombinant caspase, commercial
T5 sequence (P29452 119-296): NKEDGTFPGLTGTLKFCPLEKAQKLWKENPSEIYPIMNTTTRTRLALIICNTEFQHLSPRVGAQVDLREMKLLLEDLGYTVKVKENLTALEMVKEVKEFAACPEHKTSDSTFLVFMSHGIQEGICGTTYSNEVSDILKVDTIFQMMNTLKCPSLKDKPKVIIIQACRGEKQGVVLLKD
T5 sequence (P29452 315-402): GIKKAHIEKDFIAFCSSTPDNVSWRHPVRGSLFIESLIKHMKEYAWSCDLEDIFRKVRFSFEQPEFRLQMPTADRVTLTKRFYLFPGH

[6] = biological target: T6, human Casp10 (Homo sapiens, UniProt Q92851); conditions: 10 µM Ac-IETD-AFC, pH 7.2, 37 °C, 10 mM DTT
T6 construct: recombinant caspase, commercial (BioVision)
T6 sequence (Q92851 220-415): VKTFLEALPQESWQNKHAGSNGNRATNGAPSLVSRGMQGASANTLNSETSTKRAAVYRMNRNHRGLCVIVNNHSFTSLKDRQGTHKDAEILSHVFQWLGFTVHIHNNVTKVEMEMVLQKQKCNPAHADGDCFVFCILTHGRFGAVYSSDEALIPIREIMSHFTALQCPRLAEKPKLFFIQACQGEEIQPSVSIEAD
T6 sequence (Q92851 416-521): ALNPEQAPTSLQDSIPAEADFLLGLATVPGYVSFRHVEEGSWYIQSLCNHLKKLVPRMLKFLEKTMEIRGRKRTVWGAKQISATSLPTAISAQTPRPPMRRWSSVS

T3 sequence (Q14790 217-374): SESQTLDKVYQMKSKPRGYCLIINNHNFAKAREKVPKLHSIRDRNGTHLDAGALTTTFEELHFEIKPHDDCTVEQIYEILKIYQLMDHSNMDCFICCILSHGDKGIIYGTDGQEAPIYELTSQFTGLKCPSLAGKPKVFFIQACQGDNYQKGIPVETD
T3 sequence (Q14790 385-479): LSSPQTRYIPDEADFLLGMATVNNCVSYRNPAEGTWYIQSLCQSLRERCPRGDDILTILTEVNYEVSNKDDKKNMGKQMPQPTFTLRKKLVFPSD

IC50 [2] [nM]	IC50 [5] [nM]	Compound	IC50 [1]	IC50 [3]	IC50 [4]	IC50 [6]
9.91	18	CC(C)(C)[C@H](NC(=O)c1ccc(N)c(Cl)c1)C(=O)N1CCC[C@H]1C(=O)N[C@H](C=O)CC(=O)O [VRT-043198]	Casp5, Casp8, Casp9 and Casp10, which were inhibited in the nanomolar range in vitro	Casp5, Casp8, Casp9 and Casp10, which were inhibited in the nanomolar range in vitro	Casp5, Casp8, Casp9 and Casp10, which were inhibited in the nanomolar range in vitro	Casp5, Casp8, Casp9 and Casp10, which were inhibited in the nanomolar range in vitro
		CCO[C@@H]1OC(=O)C[C@@H]1NC(=O)[C@@H]1CCCN1C(=O)[C@@H](NC(=O)c1ccc(N)c(Cl)c1)C(C)(C)C [VX-765]	Casp5, Casp8, Casp9 and Casp10, which were inhibited in the nanomolar range in vitro	Casp5, Casp8, Casp9 and Casp10, which were inhibited in the nanomolar range in vitro	Casp5, Casp8, Casp9 and Casp10, which were inhibited in the nanomolar range in vitro	Casp5, Casp8, Casp9 and Casp10, which were inhibited in the nanomolar range in vitro
